Calls of active or inactive are those of the source. The calls are words filed in the database; no cut-off is given here.
What was measured:
[1] = Cytotoxicity against mouse BA/F3 cells; type: functional; conditions: BaF3, read-out: LD50 (the source's name)
[2] = Cytotoxicity against mouse BA/F3 cells overexpressing BCR-Abl T315I mutant; type: functional; conditions: BaF3, read-out: LD50 (the source's name)
[3] = molecular target: Bcr/Abl fusion protein (Homo sapiens) (UniProt P00519+P11274); assay: Binding affinity to Bcr-Abl expressed in mouse BA/F3 cells at 5 uM; type: cell-based; conditions: BaF3
Bcr/Abl fusion protein (Homo sapiens), sequence (P00519 whole entry, looked up, the tested form may be a part): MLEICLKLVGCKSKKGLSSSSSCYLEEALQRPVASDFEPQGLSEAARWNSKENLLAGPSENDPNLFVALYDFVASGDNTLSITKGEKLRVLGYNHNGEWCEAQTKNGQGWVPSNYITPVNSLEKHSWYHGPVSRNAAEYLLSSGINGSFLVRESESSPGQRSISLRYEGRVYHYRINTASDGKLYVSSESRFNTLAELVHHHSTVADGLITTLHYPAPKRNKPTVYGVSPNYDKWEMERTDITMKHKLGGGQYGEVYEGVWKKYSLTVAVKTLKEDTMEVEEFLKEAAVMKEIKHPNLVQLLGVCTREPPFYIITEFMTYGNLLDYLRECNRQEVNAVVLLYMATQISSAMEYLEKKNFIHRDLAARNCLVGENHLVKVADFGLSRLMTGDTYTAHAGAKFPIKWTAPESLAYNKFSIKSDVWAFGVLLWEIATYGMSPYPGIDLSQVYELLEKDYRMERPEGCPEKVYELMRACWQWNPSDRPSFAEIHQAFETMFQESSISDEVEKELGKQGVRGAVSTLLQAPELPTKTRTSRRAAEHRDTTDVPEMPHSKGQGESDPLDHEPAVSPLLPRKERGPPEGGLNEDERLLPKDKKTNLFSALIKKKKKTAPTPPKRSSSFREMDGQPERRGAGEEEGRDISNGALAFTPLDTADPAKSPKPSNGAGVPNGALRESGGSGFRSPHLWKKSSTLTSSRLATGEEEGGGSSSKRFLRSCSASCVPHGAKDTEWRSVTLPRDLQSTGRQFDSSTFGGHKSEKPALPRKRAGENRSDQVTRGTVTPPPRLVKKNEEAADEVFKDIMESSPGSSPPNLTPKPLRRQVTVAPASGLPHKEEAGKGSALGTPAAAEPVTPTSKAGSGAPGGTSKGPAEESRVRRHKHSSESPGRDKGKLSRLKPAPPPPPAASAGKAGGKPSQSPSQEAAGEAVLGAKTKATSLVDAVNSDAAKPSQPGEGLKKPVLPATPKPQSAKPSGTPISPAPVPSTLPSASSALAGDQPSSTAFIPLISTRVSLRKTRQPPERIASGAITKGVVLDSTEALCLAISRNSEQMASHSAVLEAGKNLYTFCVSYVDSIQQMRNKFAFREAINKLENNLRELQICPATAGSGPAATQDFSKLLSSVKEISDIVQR
Bcr/Abl fusion protein (Homo sapiens), sequence (P11274 whole entry, looked up, the tested form may be a part): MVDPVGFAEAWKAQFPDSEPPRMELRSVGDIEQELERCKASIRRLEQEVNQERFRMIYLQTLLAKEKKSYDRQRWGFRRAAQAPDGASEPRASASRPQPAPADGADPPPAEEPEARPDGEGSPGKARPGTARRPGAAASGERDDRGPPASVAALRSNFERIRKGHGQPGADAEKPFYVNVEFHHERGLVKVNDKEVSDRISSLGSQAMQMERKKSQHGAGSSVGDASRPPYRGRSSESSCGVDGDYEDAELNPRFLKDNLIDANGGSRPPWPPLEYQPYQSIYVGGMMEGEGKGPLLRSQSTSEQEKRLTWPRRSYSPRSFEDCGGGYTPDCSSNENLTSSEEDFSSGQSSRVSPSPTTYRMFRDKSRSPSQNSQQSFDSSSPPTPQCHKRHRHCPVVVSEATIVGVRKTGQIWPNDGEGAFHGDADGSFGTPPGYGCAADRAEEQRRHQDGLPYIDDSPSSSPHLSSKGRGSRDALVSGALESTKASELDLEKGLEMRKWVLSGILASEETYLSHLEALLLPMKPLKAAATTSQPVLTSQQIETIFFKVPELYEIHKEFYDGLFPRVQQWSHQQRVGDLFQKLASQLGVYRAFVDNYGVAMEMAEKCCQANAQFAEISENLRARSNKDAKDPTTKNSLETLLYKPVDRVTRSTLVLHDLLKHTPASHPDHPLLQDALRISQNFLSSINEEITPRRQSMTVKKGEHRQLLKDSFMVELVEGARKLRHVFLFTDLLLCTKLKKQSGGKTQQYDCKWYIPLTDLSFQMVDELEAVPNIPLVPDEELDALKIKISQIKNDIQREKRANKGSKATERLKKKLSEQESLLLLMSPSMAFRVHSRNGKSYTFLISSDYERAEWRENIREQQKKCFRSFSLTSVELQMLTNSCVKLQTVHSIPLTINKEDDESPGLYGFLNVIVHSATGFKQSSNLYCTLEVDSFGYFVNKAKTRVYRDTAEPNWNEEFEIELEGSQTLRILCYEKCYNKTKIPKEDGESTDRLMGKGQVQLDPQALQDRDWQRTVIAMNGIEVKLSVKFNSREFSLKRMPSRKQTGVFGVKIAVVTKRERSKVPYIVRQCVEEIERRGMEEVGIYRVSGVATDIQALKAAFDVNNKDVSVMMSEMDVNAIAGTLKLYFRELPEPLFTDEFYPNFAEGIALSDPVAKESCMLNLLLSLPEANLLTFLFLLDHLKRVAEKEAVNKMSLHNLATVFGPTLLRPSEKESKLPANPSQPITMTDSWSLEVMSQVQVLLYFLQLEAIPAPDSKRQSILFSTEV

[4] = molecular target: Tyrosine-protein kinase ABL1 (Mus musculus) (UniProt P00520); assay: Induction of nuclear translocation of cAbl of mouse BA/F3 cells; type: cell-based; conditions: BaF3
Tyrosine-protein kinase ABL1 (Mus musculus), sequence (P00520 whole entry): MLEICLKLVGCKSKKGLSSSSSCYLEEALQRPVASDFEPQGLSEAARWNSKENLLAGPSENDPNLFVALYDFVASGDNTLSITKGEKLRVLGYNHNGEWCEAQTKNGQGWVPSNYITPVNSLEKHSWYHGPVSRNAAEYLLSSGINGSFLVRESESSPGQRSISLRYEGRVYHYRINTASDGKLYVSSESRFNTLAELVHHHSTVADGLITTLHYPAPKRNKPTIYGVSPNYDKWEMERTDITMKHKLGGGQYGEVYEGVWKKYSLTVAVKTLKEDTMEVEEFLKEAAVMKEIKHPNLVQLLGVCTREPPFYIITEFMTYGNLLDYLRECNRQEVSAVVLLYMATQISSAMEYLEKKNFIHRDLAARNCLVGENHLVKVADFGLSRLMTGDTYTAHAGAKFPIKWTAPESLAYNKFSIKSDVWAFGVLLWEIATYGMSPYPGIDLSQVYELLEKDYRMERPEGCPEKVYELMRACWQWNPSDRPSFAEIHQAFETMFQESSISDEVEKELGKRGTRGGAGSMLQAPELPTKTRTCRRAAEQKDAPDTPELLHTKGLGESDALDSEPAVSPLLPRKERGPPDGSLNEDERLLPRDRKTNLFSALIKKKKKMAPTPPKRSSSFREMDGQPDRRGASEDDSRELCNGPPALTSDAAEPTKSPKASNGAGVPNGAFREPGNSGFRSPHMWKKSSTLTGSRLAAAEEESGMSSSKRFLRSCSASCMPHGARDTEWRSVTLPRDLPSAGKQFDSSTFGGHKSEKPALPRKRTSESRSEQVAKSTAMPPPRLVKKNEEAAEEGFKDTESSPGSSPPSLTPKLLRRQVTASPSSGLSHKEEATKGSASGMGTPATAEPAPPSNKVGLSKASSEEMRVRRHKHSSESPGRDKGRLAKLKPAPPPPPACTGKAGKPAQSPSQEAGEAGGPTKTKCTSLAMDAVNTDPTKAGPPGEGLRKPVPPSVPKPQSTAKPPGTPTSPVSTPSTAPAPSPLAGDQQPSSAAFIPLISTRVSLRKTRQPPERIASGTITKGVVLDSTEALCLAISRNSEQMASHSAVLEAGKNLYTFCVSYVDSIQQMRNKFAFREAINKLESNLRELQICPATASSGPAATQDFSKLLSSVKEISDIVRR

[5] = molecular target: Tyrosine-protein kinase ABL1 (Mus musculus) (UniProt P00520); assay: Induction of translocation of cAbl in to mitochondria of mouse BA/F3 cells; conditions: BaF3
[6] = molecular target: Tyrosine-protein kinase ABL1 (Mus musculus) (UniProt P00520); assay: Induction of translocation of cAbl in to mitochondria of mouse BA/F3 cells assessed as caspase 8 cleavage; conditions: BaF3
[7] = molecular target: Tyrosine-protein kinase ABL1 (Mus musculus) (UniProt P00520); assay: Induction of translocation of cAbl in to mitochondria of mouse BA/F3 cells assessed as caspase9 cleavage; conditions: BaF3

Structure (SMILES): Cc1c(NC(=O)c2c(C(=O)O)cccc2C(=O)O)c(=O)n(-c2ccccc2)n1C
- CC50 [1]: 1040 nM
- CC50 [2]: 1470 nM
- Activity [3]: Active
- Activity [4]: Active
- Activity [5]: Active
- Activity [6]: Active
- Activity [7]: Active
